The results in this text go back to patent EP1099438A2, “Use of APO B secretion/MTP inhibitors” (Pfizer Products Inc., priority 1999, dated 2001).

For this test, the system named is food intake. The experiment in a line: food intake reduction determination protocol in dogs. Format: in vivo. The note with it: male beagles, oral gavage, dosing solution 0.5 mg/mL at 1 mL per kg body weight, single dose on Days 0 and 5-12; 24 hour food consumption versus amount consumed prior to Day 0. The source says: Healthy, young adult (1-2 years of age) male beagles (Marshall Farms, North Rose, New York, NY 14516) weighing 11.45 - 12.45 kg at the start of the treatment period were employed as test subjects. The animals were housed individually in standard caging meeting or exceeding the USDA regulations (U.S. Department of Agriculture, Animal Welfare, Final Rules. 9 C.F.R. Parts 1-3, 1995).
The test compound was provided as a water-soluble powder. The dosing solution, administered by oral gavage, was provided employing a 0.025 M citrate buffer (approx. pH = 3) prepared using anhydrous citric acid (0.4 g/mL) and anhydrous sodium citrate (0.1 g/mL) as the test vehicle. The dosing solution was prepared at 0.5 mg/mL activity so that 1 mL was delivered per kg body weight. Following a fourteen day acclimation period (designated as Days -14 to -1), during which time the test animals were evaluated for certain criteria including determination of body weight and physical examinations, a sixteen day evaluation study was effected.
The study consisted of one group of animals containing five dogs. On Days 0 and 5-12, each dog received the dosing solution administered as a single dose at Time 0 on each dosing day via a feeding tube. […]
Reduction in food intake was quantitated by weighing individual food bowls each day prior to feeding and at the end of each 24 hour consumption period. […]

As for `CCCCN1CCc2cc(NC(=O)c3ccccc3-c3ccc(C(F)(F)F)cc3)ccc2C1` [4'-trifluoromethyl-biphenyl-2-carboxylic acid-(2-butyl-1,2,3,4-tetrahydroisoquinolin-6-yl)-amide], the “reduced food intake in dogs” value came out at 30%. As to `CC(=O)NCCN1CCc2cc(NC(=O)c3ccccc3-c3ccc(C(F)(F)F)cc3)ccc2C1` [4'-trifluoromethyl-biphenyl-2-carboxylic acid-[2-(2-acetylaminoethyl)-1,2,3,4-tetrahydroisoquinolin-6-yl amide], the “reduced food intake in dogs” value is reported as 58%.
